Among the data in US5026703A, “Peptide oxytocin antagonists” (priority 1990, dated 1991) are IC50 values, retold here.

Where a name gives a salt, the structure may show the parent alone. *1 amine or outer side, *2 acyl side, *3 side chain or, on linkers, in order; H or OH if unused. Where a SMILES comes first, the peptide text is derived from it. [ ]: non-standard residue; d: D form. X14 = CCOC(=O)C(C(=O)OCC)C1C=NN([*:1])[C@H](C(=O)[*:2])C1; X2 = O=C([C@@H]1[C@@H](O)[C@@H](O)C=NN1[*:1])[*:2]; X6 = CN(C)C[C@H]1C=NN([*:1])[C@H](C(=O)[*:2])C1; X4 = CN(C)CCNC1C=NN([*:1])[C@H](C(=O)[*:2])C1; X8 = O=C([C@@H]1CC(N2CCCC2)C=NN1[*:1])[*:2]; X3 = C=C1C=NN([*:1])[C@H](C(=O)[*:2])C1; dPiz(1,6-dehydro) = O=C(O)[C@H]1CCC=NN1; X1 = O=C([C@H]1CCCNN1[*:1])[*:2]; dNMeF = CN[C@H](Cc1ccccc1)C(=O)O

In one test the target is T1, uterine OT receptors (Rattus norvegicus, UniProt P70536).
T1 construct: from tissue; host or cells: uterus of DES-treated rats, crude membranes
T1 sequence (P70536 1-388): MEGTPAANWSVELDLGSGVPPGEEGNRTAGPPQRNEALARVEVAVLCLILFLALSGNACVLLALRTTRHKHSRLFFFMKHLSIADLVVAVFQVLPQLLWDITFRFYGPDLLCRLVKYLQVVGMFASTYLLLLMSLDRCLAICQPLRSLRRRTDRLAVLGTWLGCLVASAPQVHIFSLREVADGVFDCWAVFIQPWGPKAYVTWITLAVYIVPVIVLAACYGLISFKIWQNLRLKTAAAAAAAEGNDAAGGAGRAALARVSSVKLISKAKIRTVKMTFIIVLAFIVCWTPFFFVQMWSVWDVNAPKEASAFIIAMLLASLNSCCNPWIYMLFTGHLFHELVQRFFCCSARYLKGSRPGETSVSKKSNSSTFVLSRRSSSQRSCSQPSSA
As to the kind of experiment: [3H]OT radioligand binding to uterine OT receptors, crude membrane preparation. The settings on record: uteri of DES-treated rats; 1 nM [3H]OT; 60 min, 22° C.; inhibits specific binding by 50%; read-out: Receptor Binding Results IC50 (nM) [3H]OT. The procedure:
The high affinity binding of [^3 H]OT ([tyrosyl, 3,5-[^3 H]OT; 30-60 Ci/mmol; New England Nuclear Boston, Mass.) to uterine OT receptors was based on an assay* using a crude membrane preparation of uteri taken from diethylstilbestrol dipropionate (DES)-treated (0.3 mg/kg, ip; 18-24) rats. Competition studies were conducted at equilibrium (60 min; 22° C.) using 1 nM [^3 H]OT in the following assay buffer: 50 mM Tris-HCl, 5 mM MgCl2, and 0.1% BSA, pH 7.4. Nonspecific binding (10% of the total binding) was determined using 1 μM unlabeled OT and the binding reaction was terminated by filtration through glass fiber filters using a cell harvester (model 7019, Skatron, Inc., Sterling, Va.).
*Fuchs, A-R; Fuchs, F; Soloff, MS. 1985 J. Clin. Endocrinol. Metab. 60:37.

In a further test the target is AVP-V2 sites (Rattus norvegicus, UniProt Q00788). As to the kind of experiment: [3H]AVP radioligand binding to rat kidney medulla crude membrane preparation (AVP-V2 sites). As to conditions: rat kidney medulla membranes; 2 nM [3H]AVP; 30 min at 30° C.; read-out: Receptor Binding Results IC50 (nM) [^3 H]-AVP-V2. As to the method: (§1) Nonspecific binding (5-10% of the total binding) was determined using 10 μM unlabeled AVP, and the binding reaction was terminated by filtration as described above for the [^3 H]OT binding assay.
(§2) +Butlen, D; Guillon, G; Rajerison, RM; Jard, S; Sawyer, WH; Manning, M. 1978 Mol Pharmacol 14:1006.

For a further test, the target named is AVP-V1 sites (Rattus norvegicus, UniProt P30560). Description: [3H]AVP radioligand binding to male rat liver crude membrane preparation (AVP-V1 sites). As to conditions: male rat liver membranes; 1 nM [3H]AVP; 30 min at 30° C.; read-out: Receptor Binding Results IC50 (nM) [^3 H]-AVP-V1. As to the method:
as §1, §2

AVP-V1 sites, sequence (P30560 whole entry): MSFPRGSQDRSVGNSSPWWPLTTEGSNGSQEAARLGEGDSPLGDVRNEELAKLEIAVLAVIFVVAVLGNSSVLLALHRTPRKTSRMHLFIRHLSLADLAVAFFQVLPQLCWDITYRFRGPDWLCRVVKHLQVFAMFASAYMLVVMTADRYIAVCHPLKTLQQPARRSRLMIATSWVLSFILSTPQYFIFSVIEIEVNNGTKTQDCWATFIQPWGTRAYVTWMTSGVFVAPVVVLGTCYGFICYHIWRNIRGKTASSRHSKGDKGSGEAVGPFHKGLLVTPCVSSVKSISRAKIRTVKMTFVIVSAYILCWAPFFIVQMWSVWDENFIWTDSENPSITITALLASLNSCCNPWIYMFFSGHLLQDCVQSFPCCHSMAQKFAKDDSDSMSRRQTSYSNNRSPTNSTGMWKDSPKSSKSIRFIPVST
AVP-V2 sites, sequence (Q00788 whole entry): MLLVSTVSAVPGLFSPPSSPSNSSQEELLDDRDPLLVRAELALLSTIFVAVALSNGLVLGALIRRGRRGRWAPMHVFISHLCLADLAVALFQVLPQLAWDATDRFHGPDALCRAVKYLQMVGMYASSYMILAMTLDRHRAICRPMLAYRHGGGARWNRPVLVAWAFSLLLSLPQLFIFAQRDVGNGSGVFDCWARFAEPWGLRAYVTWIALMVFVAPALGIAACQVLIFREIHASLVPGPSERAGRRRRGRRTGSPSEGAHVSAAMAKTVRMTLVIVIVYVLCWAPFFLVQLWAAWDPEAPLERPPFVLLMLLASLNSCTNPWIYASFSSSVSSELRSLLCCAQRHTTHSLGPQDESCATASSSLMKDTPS

Regarding `CC[C@H](C)[C@@H]1NC(=O)[C@@H](Cc2ccccc2)NC(=O)[C@@H]2CCCN2C(=O)[C@@H](Cc2ccccc2)N(C)C(=O)[C@@H]2[C@@H](O)[C@@H](O)C=NN2C(=O)[C@H]2CCC=NN2C1=O` [Example 13, cyclo-[D-Phenylalanyl-L-isoleucyl-D-2,3,4,5-tetrahydro-3-pyridazinecarbonyl-(3α,4β,5β)-4,5-dihydroxy-L-2,3,4,5-tetrahydro-3-pyridazinecarbonyl-N-methyl-D-phenylalanyl-L-prolyl]] (cyclo(I[dPiz(1,6-dehydro)][X2][dNMeF]P[dF])), the IC50 (in general, the point on the concentration scale where inhibition reaches its midpoint) at uterine OT receptors is 785 nM; on AVP-V2 sites, greater than 10000 nM; on AVP-V1 sites, 10000 nM.
Turning to `CC[C@H](C)[C@@H]1NC(=O)[C@@H](Cc2ccccc2)NC(=O)[C@@H]2CCCN2C(=O)[C@@H](Cc2ccccc2)N(C)C(=O)[C@@H]2[C@@H](O)[C@@H](O)C=NN2C(=O)[C@H]2CCCNN2C1=O` [Example 14, cyclo-[D-Phenylalanyl-L-isoleucyl-D-hexahydro-3-pyridazinecarbonyl-(3α,4β,5β)-4,5-dihydroxy-L-2,3,4,5-tetrahydro-3-pyridazinecarbonyl-N-methyl-D-phenylalanyl-L-prolyl]trifluoroacetate salt.] (cyclo(I[X1][X2][dNMeF]P[dF])), the values for the IC50 at uterine OT receptors, on AVP-V2 sites and at AVP-V1 sites were 290 nM, greater than 10000 nM and 10000 nM, respectively.
On the same counts, the results for `CC[C@H](C)[C@@H]1NC(=O)[C@@H](Cc2ccccc2)NC(=O)[C@@H]2CCCN2C(=O)[C@@H](Cc2ccccc2)N(C)C(=O)[C@@H]2CC(N3CCCC3)C=NN2C(=O)[C@H]2CCC=NN2C1=O` (stereo partly drawn) [Example 15, cyclo-[D-Phenylalanyl-L-isoleucyl-D-2,3,4,5-tetrahydro-3-pyridazinecarbonyl-5-(1-pyrolidinyl)-L-2,3,4,5-tetrahydro-3-pyridazinecarbonyl-N-methyl-D-phenylalanyl-L-prolyl] trifluoroacetate] (cyclo(I[dPiz(1,6-dehydro)][X8][dNMeF]P[dF])) are 600 nM, 11000 nM and 8800 nM.
In the same order, the values of `CC[C@H](C)[C@@H]1NC(=O)[C@@H](Cc2ccccc2)NC(=O)[C@@H]2CCCN2C(=O)[C@@H](Cc2ccccc2)N(C)C(=O)[C@@H]2CC(NCCN(C)C)C=NN2C(=O)[C@H]2CCC=NN2C1=O` (stereo partly drawn) [Example 16, cyclo-[D-Phenylalanyl-L-isoleucyl-D-2,3,4,5-tetrahydro-3-pyridazinecarbonyl-5-((2-dimethylamino)ethylamino)-L-2,3,4,5,-tetrahydro-3-pyridazinecarbonyl-N-methyl-D-phenylalanyl-L-prolyl] (trifluoroacetate) (High Rf isomer)] (cyclo(I[dPiz(1,6-dehydro)][X4][dNMeF]P[dF])) are 220 nM, 7300 nM and 930 nM.
On the same counts, the results for `CCOC(=O)C(C(=O)OCC)C1C=NN2C(=O)[C@H]3CCC=NN3C(=O)[C@H]([C@@H](C)CC)NC(=O)[C@@H](Cc3ccccc3)NC(=O)[C@@H]3CCCN3C(=O)[C@@H](Cc3ccccc3)N(C)C(=O)[C@@H]2C1` (stereo partly drawn) [Example 17, cyclo-[D-Phenylalanyl-L-isoleucyl-D-2,3,4,5-tetrahydro-3-pyridazinecarbonyl-5-(2-ethoxy-1-(ethoxycarbonyl)-2-oxoethyl)-L-2,3,4,5,-tetrahydro-3-pyridazinecarbonyl-N-methyl-D-phenylalanyl-L-prolyl] (trifluoroacetate)] (cyclo(I[dPiz(1,6-dehydro)][X14][dNMeF]P[dF])) are 200 nM, 2400 nM and 3000 nM.
For the molecule `CC[C@H](C)[C@@H]1NC(=O)[C@@H](Cc2ccccc2)NC(=O)[C@@H]2CCCN2C(=O)[C@@H](Cc2ccccc2)N(C)C(=O)[C@@H]2C[C@@H](CN(C)C)C=NN2C(=O)[C@H]2CCC=NN2C1=O` [Example 18, cyclo-[D-Phenylalanyl-L-isoleucyl-D-2,3,4,5-tetrahydro-3-pyridazinecarbonyl-trans-5-(dimethylamino)methyl-L-2,3,4,5,-tetrahydro-3-pyridazinecarbonyl-N-methyl-D-phenylalanyl-L-prolyl] monoacetate] (cyclo(I[dPiz(1,6-dehydro)][X6][dNMeF]P[dF])), the results for the IC50 at uterine OT receptors, at AVP-V2 sites and on AVP-V1 sites were 7.8 nM, 2800 nM and 1850 nM, respectively.
On the same counts, the results for `C=C1C=NN2C(=O)[C@H]3CCC=NN3C(=O)[C@H]([C@@H](C)CC)NC(=S)[C@@H](Cc3ccccc3)NC(=O)[C@@H]3CCCN3C(=O)[C@@H](Cc3ccccc3)N(C)C(=O)[C@@H]2C1` [Example 19, cyclo-[D-Thiophenylalanyl-L-isoleucyl-D-2,3,4,5-tetrahydro-3-pyridazinecarbonyl-5-methylene-L-2,3,4,5-tetrahydro-3-pyridazinecarbonyl-N-methyl-D-phenylalanyl-L-prolyl]] are 3.6 nM, greater than 1000 nM and greater than 1000 nM.
On the same counts, the results for `C=C1C=NN2C(=O)[C@H]3CCC=NN3C(=O)[C@H]([C@@H](C)CC)NC(=O)[C@@H](Cc3ccccc3)NC(=O)[C@@H]3CCCN3C(=O)[C@@H](Cc3ccccc3)N(C)C(=O)[C@@H]2C1` [Example 20, cyclo-[D-Phenylalanyl-L-isoleucyl-D-2,3,4,5-tetrahydro-3-pyridazinecarbonyl-5-methylene-L-2,3,4,5,-tetrahydro-3-pyridazinecarbonyl-N-methyl-D-phenylalanyl-L-prolyl]] (cyclo(I[dPiz(1,6-dehydro)][X3][dNMeF]P[dF])) are 37 nM, greater than 10000 nM and greater than 10000 nM.
